Reference: patent US10442758B2, “Zinc or Copper (II) salt and use thereof as a biocide” (LABORATORIYA BIO ZET, LLC, priority 2013, dated 2019)

Columns and labels:
Assay type in all cases: cell-based
[1] = system: E. coli No. 906, S. aureus No. 1257, P. aeruginosa, methicillin-resistant strain S. aureus; assay: Bactericidal activity, summary over the investigated strains
Description: (§1) The determination is performed on E. coli No. 906 and S. aureus No. 1257 test strains being usually used to study the bactericidal activity of biocides as well as on clinical strains—P. aeruginosa and methicillin-resistant strain S. aureus—at salt concentrations from 0.5 to 2% and time of exposure from 5 to 60 min.
(§2) The same method as described in Example 9 is used to determine the bactericidal activity of ZMA against three of four strains studied in Example 9.

fungal spores = assay: Fungicidal activity according to GOST 30028.4-2006: resistance of treated material samples to fungal spores
E. coli No. 906 = assay: Bactericidal activity: bacterial culture exposed in salt solution, neutralized, inoculated on solid nutrient medium; details: time of exposure 30 min, concentration from 1.0 to 2.5%
Description: as §1, §2

[2] = system: P. aeruginosa (clinical strain); assay: as above; details: for Bactericidal activity: growth of P. aeruginosa: 1.0 % wt., CFU in 1 ml
Description: as §1, §2

S. aureus No. 1257 = assay: as above; details: for Bactericidal activity: growth of S. aureus test strain: CFU in 1 ml
Description: The determination is performed on E. coli No. 906 and S. aureus No. […]
as §2

[3] = test material paper impregnated with latex SKS 65 GP, additive content 0.5 % wt.
[4] = test material paper impregnated with petrolatum base, additive content 4.7 % wt.
[5] = test material polyvinyl chloride emulsion, additive content 0.5 % wt.

Compound	bactericidal activity compared with the proposed salts ([1]; comparison of Table 3 with Table 2)	Tolerance time (fungal spores; [3])	Tolerance time (fungal spores; [4])	Tolerance time (fungal spores; test material polyvinyl chloride emulsion, additive content 5 % wt.)	bactericidal activity (in words) against E. coli No. 906 (E. coli No. 906)	Bactericidal activity: growth of P. aeruginosa ([2]; exposure 30 min)	bactericidal activity (in words) against P. aeruginosa ([2]; only at concentration from 2.5%)	Bactericidal activity: growth of S. aureus test strain (S. aureus No. 1257; 2.5 % wt., exposure 30 min)	Bactericidal activity: growth of S. aureus test strain (S. aureus No. 1257; 5 % wt., exposure 5 min)	bactericidal activity (in words) against S. aureus No. 1257 (S. aureus No. 1257; only at concentration of 2.5% and time of exposure of 60 min)	bactericidal effect (in words) ([1]; concentration 1.0%, time of exposure from 30 min)	Tolerance time (fungal spores; [5])	Bactericidal activity: growth of P. aeruginosa ([2]; exposure 5 min)	Bactericidal activity: growth of S. aureus test strain (S. aureus No. 1257; 1.0 % wt., exposure 15 min)
C=C(C)C(=O)[O-].CC(=O)[O-].[Zn+2] [ZMA, zinc methacrylate-acetate]	substantially lower than that of the proposed salts	12 days	16 days	22 days	stable bactericidal activity	>300 CFU	not completely stable bactericidal activity	>300 CFU	>300 CFU	sub-bactericidal activity	–	–	–	–
Zinc methacrylate-sulfosalicylate	–	16 days	20 days	–	–	–	–	–	–	–	stable bactericidal effect against three of four investigated strains	16 days	1 CFU	>300 CFU
C=CC(=O)[O-].O=C([O-])c1ccccc1.[Zn+2] [Zinc acrylate-benzoate]	–	–	–	–	–	–	–	–	–	–	–	11 days	–	–
